From patent US8604202B2, “Thienopyridone derivatives as AMP-activated protein kinase (AMPK) activators” (Merck Patent GmbH, priority 2008, dated 2013)

Columns and labels:
[1] = target: T1, AMPK protein (recombinant α1β1γ2) (Homo sapiens, UniProt Q13131+Q9Y478); assay: AMPK enzymatic activity (Delfia, AMARA peptide); assay type: biochemical; conditions: compound 30 μM vs AMP 30 μM; 125 μM ATP; 30 min room temperature; ratio 90% or higher = direct activator
T1 construct: made in house; host or cells: E. coli
Description: The following biological test allows the determination of the efficacy of such compounds of formula (I) onto AMPK protein (recombinant α1β1γ2).
Human recombinant AMPK enzyme was expressed in E. Coli and was reactivated in vitro by LKB1 prior to enzyme activity determination.
AMPK enzyme activities were assayed by using A Delfia technology. AMPK enzyme activities were carried out in microtiter plates (50 mM Hepes buffer, pH 7.4 with 125 μM ATP respectively) in the presence of a synthetic peptide substrate (AMARAASAAALARRR, the “AMARA” peptide) and activators in serial dilutions. Reactions were initiated by the addition of AMPK (50-100 ng). Following mixing, the plates were incubated for 30 min at room temperature. Enzyme activity was assayed by using an anti-phosphoserine antibody to measure the quantity of phosphate incorporated into the AMARAA.
Ratio between the % of control (basal activity) of compound of formula (I) at 30 μM and the % of control (basal activity) of AMP (natural substrate) at 30 μM. Compounds of formula (I) in the table II are considered as direct activator of AMPK if the ratio is 90% or higher.

[2] = system: H-2 Kb cells; assay: Glucose uptake in H-2 Kb cells (in vitro cellular test); assay type: cell-based, mouse; conditions: Mus musculus; differentiated H-2 Kb muscle cells, 4 hours incubation, 2-deoxy-D-[3H]glucose 10 min; read-out: activity: Concentration of compound for a glucose uptake equal or higher to glucose uptake induced by insulin (170 nM)
Description: The following cellular test allows the determination of the effect of AMPK activators such as compounds of formula (I) onto glucose uptake in a muscle cellular model.
H-2 Kb cells derived from heterozygous H-2 Kb tsA58 transgenic mouse were grown in 24-well in plates coated with matrigel and were cultured at 33° C. for 4 days under permissive conditions, as described previously by Fryer et al. (Diabetes 49 (12): 1978, 2000).
For differentiation in muscle, cells were switched to non-permissive culture conditions (37° C. in the absence of interferon-γ). After 3 days, cells were incubated for 4 hours in DMEM 1 g/l glucose culture medium containing different concentrations of the tested molecules. Then glucose uptake was measured by incubating the cells for 10 min with radiolabelled 2-deoxy-D-[1, 2 ^3H] glucose. Glucose uptake was terminated by rapidly washing the plates 2 times with ice-cold NaCl 0.9%. The cells were then solubilized in 0.1N NaOH for 30 min. Radioactivity was determined by liquid scintillation counting.
Activity table III: Concentration of compound (1) for a glucose uptake equal or higher to glucose uptake induced by insulin (170 nM)

T1 sequence (Q13131 whole entry): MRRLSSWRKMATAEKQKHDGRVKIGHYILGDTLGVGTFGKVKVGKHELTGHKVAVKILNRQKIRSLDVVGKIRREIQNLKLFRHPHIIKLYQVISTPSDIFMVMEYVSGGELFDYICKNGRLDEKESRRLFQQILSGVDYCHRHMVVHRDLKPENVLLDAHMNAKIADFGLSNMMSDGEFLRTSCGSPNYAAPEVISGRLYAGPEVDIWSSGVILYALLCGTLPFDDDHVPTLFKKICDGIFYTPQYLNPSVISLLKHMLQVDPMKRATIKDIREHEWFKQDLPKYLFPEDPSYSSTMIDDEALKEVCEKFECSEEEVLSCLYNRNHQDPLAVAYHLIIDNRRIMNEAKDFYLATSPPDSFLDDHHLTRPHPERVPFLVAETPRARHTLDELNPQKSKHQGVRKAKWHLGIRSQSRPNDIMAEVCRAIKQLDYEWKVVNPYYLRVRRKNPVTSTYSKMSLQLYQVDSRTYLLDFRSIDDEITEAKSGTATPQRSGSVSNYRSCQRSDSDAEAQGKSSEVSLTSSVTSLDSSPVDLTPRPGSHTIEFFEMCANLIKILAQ
T1 sequence (Q9Y478 whole entry): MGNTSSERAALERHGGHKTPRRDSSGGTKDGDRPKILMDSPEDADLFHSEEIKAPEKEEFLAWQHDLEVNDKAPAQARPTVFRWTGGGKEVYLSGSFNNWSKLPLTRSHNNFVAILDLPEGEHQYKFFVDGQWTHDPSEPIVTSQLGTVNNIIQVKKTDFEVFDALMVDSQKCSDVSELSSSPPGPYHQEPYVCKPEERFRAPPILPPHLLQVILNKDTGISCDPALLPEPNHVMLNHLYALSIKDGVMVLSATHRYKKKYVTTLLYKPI
T1 sequence (Q9UGJ0 whole entry partner): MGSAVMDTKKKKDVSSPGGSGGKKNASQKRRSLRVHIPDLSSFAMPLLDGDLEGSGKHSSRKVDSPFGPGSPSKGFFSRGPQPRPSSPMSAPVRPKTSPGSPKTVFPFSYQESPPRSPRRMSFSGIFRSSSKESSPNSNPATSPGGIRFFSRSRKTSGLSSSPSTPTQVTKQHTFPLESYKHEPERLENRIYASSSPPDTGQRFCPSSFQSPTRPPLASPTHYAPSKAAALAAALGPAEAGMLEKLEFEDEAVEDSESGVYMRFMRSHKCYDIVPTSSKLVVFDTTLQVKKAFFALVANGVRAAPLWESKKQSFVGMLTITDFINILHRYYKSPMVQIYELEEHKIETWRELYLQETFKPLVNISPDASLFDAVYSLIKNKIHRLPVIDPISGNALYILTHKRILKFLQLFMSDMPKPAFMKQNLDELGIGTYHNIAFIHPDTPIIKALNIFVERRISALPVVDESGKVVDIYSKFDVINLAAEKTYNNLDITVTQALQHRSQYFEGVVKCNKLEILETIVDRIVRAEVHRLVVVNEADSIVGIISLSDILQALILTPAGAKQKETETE

| SMILES | activity: Ratio between the % of control (basal activity) of compound of formula (I) at 30 μM and the % of control (basal activity) of AMP at 30 μM [1] [%] | EC (glucose uptake equal or higher to insulin 170 nM) [2] [µM] |
| --- | --- | --- |
| COc1ccccc1-c1ccc(-c2csc3[nH]c(=O)c(-c4ccccc4)c(O)c23)cc1 [Compound 2, 4-hydroxy-3-(2′-methoxybiphenyl-4-yl)-5-phenyl-6,7-dihydro-thieno[2,3-b]pyridin-6-one] | 158 | > 10 |
| O=c1[nH]c2scc(-c3ccc(-c4ccccc4F)cc3)c2c(O)c1-c1ccccc1 [Compound 6, 3-(2′-fluorobiphenyl-4-yl)-4-hydroxy-5-phenyl-6,7-dihydro-thieno[2,3-b]pyridin-6-one] | 191 | > 10 |
| CS(=O)(=O)c1ccc(-c2ccc(-c3csc4[nH]c(=O)c(-c5ccccc5)c(O)c34)cc2)cc1 [Compound 20, 4-hydroxy-3-(4′-methylsulfonylbiphenyl-4-yl)-5-phenyl-6,7-dihydro-thieno[2,3-b]pyridin-6-one] | 206 | > 10 |
| Cc1cccc(-c2ccc(-c3csc4[nH]c(=O)c(-c5ccccc5)c(O)c34)cc2)c1 [Compound 11, 4-hydroxy-3-(3′-methylbiphenyl-4-yl)-5-phenyl-6,7-dihydro-thieno[2,3-b]pyridin-6-one] | 150 | > 10 |
| O=c1[nH]c2scc(-c3ccc(-c4ccccc4)cc3)c2c(O)c1-c1ccncc1 [Compound 26, 3-biphenyl-4-yl-4-hydroxy-5-pyridin-4-yl-6,7-dihydro-thieno[2,3-b]pyridin-6-one] | 258 |  |
| O=c1[nH]c2scc(-c3ccc(-c4cccc(CO)c4)cc3)c2c(O)c1-c1ccccc1 [Compound 58, 4-hydroxy-3-(3′-hydroxymethylbiphenyl-4-yl)-5-phenyl-6,7-dihydro-thieno[2,3-b]pyridin-6-one] | 111 |  |
| O=c1[nH]c2scc(-c3ccc(-c4ccc(CO)cc4)cc3)c2c(O)c1-c1ccccc1 [Compound 59, 4-hydroxy-3-(4′-hydroxymethylbiphenyl-4-yl)-5-phenyl-6,7-dihydro-thieno[2,3-b]pyridin-6-one] | 128 |  |
| COc1cc(-c2csc3[nH]c(=O)c(-c4ccccc4)c(O)c23)ccc1-c1ccc(C)cc1 [Compound 46, 4-hydroxy-3-(4′-methyl-2-methoxybiphenyl-4-yl)-5-phenyl-6,7-dihydro-thieno[2,3-b]pyridin-6-one] | 124 |  |
| O=c1[nH]c2scc(-c3ccc(-c4ccccc4F)cc3)c2c(O)c1-c1cccnc1 [Compound 32, 3-(2′-fluorobiphenyl-4-yl)-4-hydroxy-5-pyridin-3-yl-6,7-dihydro-thieno[2,3-b]pyridin-6-one] | 159 |  |
| O=c1[nH]c2scc(-c3ccc(-c4ccc(F)cc4)cc3)c2c(O)c1-c1ccncc1 [Compound 23, 3-(4′-fluorobiphenyl-4-yl)-4-hydroxy-5-pyridin-4-yl-6,7-dihydro-thieno[2,3-b]pyridin-6-one] | 163 |  |
| O=c1[nH]c2scc(-c3ccc(-c4ccc(F)cc4)cc3)c2c(O)c1-c1cccnc1 [Compound 34, 3-(4′-fluorobiphenyl-4-yl)-4-hydroxy-5-pyridin-3-yl-6,7-dihydro-thieno[2,3-b]pyridin-6-one] | 165 |  |
| Cc1ccccc1-c1ccc(-c2csc3[nH]c(=O)c(-c4ccccc4)c(O)c23)cc1 [Compound 7, 4-hydroxy-3-(2′-methylbiphenyl-4-yl)-5-phenyl-6,7-dihydro-thieno[2,3-b]pyridin-6-one] | 141 | > 10 |

The next lines start with results.

| activity: Ratio between the % of control (basal activity) of compound of formula (I) at 30 μM and the % of control (basal activity) of AMP at 30 μM [1] [%] | SMILES | EC (glucose uptake equal or higher to insulin 170 nM) [2] [µM] |
| --- | --- | --- |
| 126 | O=c1[nH]c2scc(-c3ccc(-c4ccccc4O)cc3)c2c(O)c1-c1ccccc1 [Compound 4, 4-hydroxy-3-(2′-hydroxybiphenyl-4-yl)-5-phenyl-6,7-dihydro-thieno[2,3-b]pyridin-6-one] | > 10 |
| 152 | N#Cc1ccc(-c2c(O)c3c(-c4ccc(-c5ccccc5)cc4)csc3[nH]c2=O)cc1 [Compound 22, 3-biphenyl-4-yl-5-(4-cyanophenyl)-4-hydroxy-6,7-dihydro-thieno[2,3-b]pyridin-6-one] | > 10 |
| 130 | O=c1[nH]c2scc(-c3ccc(-c4ccccc4)cc3)c2c(O)c1-c1ccccc1 [Compound 1, 3-biphenyl-4-yl-4-hydroxy-5-phenyl-6,7-dihydro-thieno[2,3-b]pyridin-6-one] | > 10 |
| 120 | O=c1[nH]c2scc(-c3ccc(-c4cccc(O)c4)cc3)c2c(O)c1-c1ccccc1 [Compound 9, 4-hydroxy-3-(3′-hydroxybiphenyl-4-yl)-5-phenyl-6,7-dihydro-thieno[2,3-b]pyridin-6-one] | > 10 |
| 161 | Cc1ccccc1-c1ccc(-c2csc3[nH]c(=O)c(-c4cccnc4)c(O)c23)cc1 [Compound 35, 4-hydroxy-3-(2′-methylbiphenyl-4-yl)-5-pyridin-3-yl-6,7-dihydro-thieno[2,3-b]pyridin-6-one] | > 10 |
| 145 | O=c1[nH]c2scc(-c3ccc(-c4ccoc4)cc3)c2c(O)c1-c1cccnc1 [Compound 38, 4-hydroxy-3-[4-(3-furyl)phenyl]-5-pyridin-3-yl-6,7-dihydro-thieno[2,3-b]pyridin-6-one] |  |
| 107 | COc1cc(F)ccc1-c1ccc(-c2csc3[nH]c(=O)c(-c4ccccc4)c(O)c23)cc1 [Compound 42, 3-(4′-fluoro-2′-methoxybiphenyl-4-yl)-4-hydroxy-5-phenyl-6,7-dihydro-thieno[2,3-b]pyridin-6-one] |  |
| 156 | Cc1cccc(-c2ccc(-c3csc4[nH]c(=O)c(-c5cccnc5)c(O)c34)cc2)c1 [Compound 36, 4-hydroxy-3-(3′-methylbiphenyl-4-yl)-5-pyridin-3-yl-6,7-dihydro-thieno[2,3-b]pyridin-6-one] | > 10 |
| 264 | COc1cc(-c2csc3[nH]c(=O)c(-c4ccccc4)c(O)c23)ccc1-c1ccc(O)cc1 [Compound 48, 4-hydroxy-3-(4′-hydroxy-2-methoxybiphenyl-4-yl)-5-phenyl-6,7-dihydro-thieno[2,3-b]pyridin-6-one] |  |
| 212 | O=c1[nH]c2scc(-c3ccc(-c4ccncc4)cc3)c2c(O)c1-c1ccncc1 [Compound 30, 4-hydroxy-5-pyridin-4-yl-3-(4-pyridin-4-ylphenyl)-6,7-dihydro-thieno[2,3-b]pyridin-6-one] |  |
| 191 | Cc1ccc(-c2ccc(-c3csc4[nH]c(=O)c(-c5ccncc5)c(O)c34)cc2)cc1 [Compound 24, 4-hydroxy-3-(4′-methylbiphenyl-4-yl)-5-pyridin-4-yl-6,7-dihydro-thieno[2,3-b]pyridin-6-one] |  |
